Experiments:
p53 Y220C = p53 Y220C (Homo sapiens, UniProt P04637, Y220C); assay: Luciferase Reporter Assay (Luc), p53 response element, NClH1299 cells with inducible p53 Y220C; type: cell-based; conditions: luciferase reporter, NClH1299 inducible p53 Y220C, 6 hour; for AC50: read-out: Luc P53 Y220C AC50
In short: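 Doxycycline (0.5 ug/mL, 24 h) induces the mutant before a 6-hour compound treatment. Reporter activity is then quantified by One-Glo luminescence.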

H1299 p53 R273H = assay: Cell Proliferation Assay (CellTiter-Glo, CTG), H1299 p53 R273H (NClH1299-inducible p53 R273H); type: cell-based; conditions: Homo sapiens, NCI-H1299, 120 h, NClH1299-inducible p53 R273H cells, 5 days, CellTiter-Glo
In short: (§1)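 NClH1299 lines stably transduced with Tet-inducible p53 Y220C or R273H, plus NUGC3, were treated with compound for 5 days at 250-500 cells/well. IC50 derived from CellTiter-Glo luminescent signal after 10 min room-temperature incubation.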

NUGC3 p53 Y220C = assay: Cell Proliferation Assay (CellTiter-Glo, CTG), NUGC3 p53 Y220C; type: cell-based; conditions: Homo sapiens, NUGC-3, 120 h, NUGC3 cells, 5 days, CellTiter-Glo
In short: as §1

[1] = biological target: T1, p53 Y220C mutant protein (amino acid residues 94-293) (Homo sapiens, UniProt P04637, Y220C); assay: Surface Plasmon Resonance (SPR) assay, Kd_kinetic; type: binding; conditions: SPR; p53 Y220C; read-out: SPR P53 Y220C KD kinetic
T1 construct: p53 Y220C mutant protein (amino acid residues 94-293)
In short: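 Temperature held at 16 or 20 °C during Biacore 8K runs. Buffer: 50 mM Tris, pH 7.5, 100 mM NaCl, 1 mM DTT, 0.01% Brij35, 0.05% Tween-20, 1% DMSO.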

H1299 p53 Y220C = assay: Cell Proliferation Assay (CellTiter-Glo, CTG), H1299 p53 Y220C (NClH1299-inducible p53 Y220C); type: cell-based; conditions: Homo sapiens, NCI-H1299, 120 h, NClH1299-inducible p53 Y220C cells, 5 days, CellTiter-Glo
In short: as §1

T1 sequence (P04637 94-293, stated change not applied): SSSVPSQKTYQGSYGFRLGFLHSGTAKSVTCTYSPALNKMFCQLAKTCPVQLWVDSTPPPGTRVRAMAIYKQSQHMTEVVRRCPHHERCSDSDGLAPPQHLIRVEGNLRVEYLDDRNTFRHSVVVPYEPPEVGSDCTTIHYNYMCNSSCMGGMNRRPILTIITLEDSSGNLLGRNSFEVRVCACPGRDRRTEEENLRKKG

SMILES	AC50 (p53 Y220C)	Emax (p53 Y220C)	IC50 (H1299 p53 R273H)	IC50 (NUGC3 p53 Y220C)	Kd [1]	IC50 (H1299 p53 Y220C)
CN1CC[C@@H](Nc2cccn3c(SC(F)(F)F)c(C#CCNc4ccc(C(=O)N5CC(C)(O)C5)cc4)cc23)[C@@H](F)C1 [Example 395]	< 750 nM	> 90%	5000 to 8000 nM	< 750 nM	< 10 nM	< 750 nM
C[C@H](NC(=O)c1ccc(NCC#Cc2cc3c(N[C@@H]4CCN(C)C[C@@H]4F)cccn3c2SC(F)(F)F)cc1)[C@@H](C)O [Example 396]	< 750 nM	> 90%	8000 to 10000 nM	< 750 nM	< 10 nM	< 750 nM
C[C@@H](O)CNC(=O)c1ccc(NCC#Cc2cc3c(N[C@@H]4CCNC[C@@H]4F)cccn3c2SC(F)(F)F)cc1 [Example 397]	< 750 nM	> 90%	5000 to 8000 nM	< 750 nM	< 10 nM	< 750 nM
COc1cc2c(cc1NCC#Cc1cc3c(N[C@@H]4CCN(C)C[C@@H]4F)cccn3c1SC(F)(F)F)CNC2=O [Example 399]	< 750 nM	> 90%	5000 to 8000 nM	< 750 nM	< 10 nM	< 750 nM
COc1cc(P(C)(C)=O)cnc1NCC#Cc1cc2c(N[C@@H]3CCN(C)C[C@@H]3F)cccn2c1SC(F)(F)F [Example 402, 2-(3-{[5-(dimethylphosphoryl)-3-methoxypyridin-2-yl]amino}prop-1-yn-1-yl)-N-[(3S,4R)-3-fluoro-1-methylpiperidin-4-yl]-3-[(trifluoromethyl)sulfanyl]indolizin-8-amine]	< 750 nM	80 to 90%	≥ 10000 nM	< 750 nM	< 10 nM	< 750 nM
C[C@H](O)CNC(=O)c1ccc(NCC#Cc2cc3c(N[C@@H]4CCNC[C@@H]4F)cccn3c2SC(F)(F)F)cc1 [Example 403]	< 750 nM	> 90%	≥ 10000 nM	< 750 nM	< 10 nM	< 750 nM
COc1ccc(C(=O)NC[C@H](C)O)cc1NCC#Cc1cc2c(N[C@@H]3CCN(C)C[C@@H]3F)cccn2c1SC(F)(F)F [Example 404]	< 750 nM	> 90%	8000 to 10000 nM	< 750 nM	< 10 nM	< 750 nM
CNC(=O)c1ccc(NCC#Cc2cc3c(N[C@@H]4CCN(C)C[C@@H]4F)cccn3c2SC(F)(F)F)c(OC2COC2)c1 [Example 405]	< 750 nM	> 90%	≥ 10000 nM	< 750 nM	< 10 nM	< 750 nM
COc1cc(C(=O)N2CC(C)(O)C2)ccc1NCC#Cc1cc2c(N[C@@H]3CCNC[C@@H]3F)cccn2c1SC(F)(F)F [Example 406, 1-(4-{[3-(8-{[(3S,4R)-3-fluoropiperidin-4-yl]amino}-3-[(trifluoromethyl)sulfanyl]indolizin-2-yl)prop-2-yn-1-yl]amino}-3-methoxybenzoyl)-3-methylazetidin-3-ol]	< 750 nM	80 to 90%	5000 to 8000 nM	< 750 nM	< 10 nM	< 750 nM
CN1CC[C@@H](Nc2cccn3c(SC(F)(F)F)c(C#CCNc4ccc(C(=O)NC[C@H]5COCCO5)cc4)cc23)[C@@H](F)C1 [Example 407]	< 750 nM	> 90%	5000 to 8000 nM	< 750 nM	< 10 nM	< 750 nM
COc1cc(C(=O)NCC(C)(C)O)ccc1NCC#Cc1cc2c(N[C@@H]3CCNC[C@@H]3F)cccn2c1SC(F)(F)F [Example 408]	< 750 nM	80 to 90%	5000 to 8000 nM	< 750 nM	< 10 nM	< 750 nM
CN1CC[C@@H](Nc2cccn3c(SC(F)(F)F)c(C#CCNc4cc(C(=O)NCC5(O)CC5)ccc4OC4COC4)cc23)[C@@H](F)C1 [Example 409]	< 750 nM	> 90%	≥ 10000 nM	< 750 nM	< 10 nM	< 750 nM
COc1ccc(C(=O)N[C@@H](C)[C@@H](C)O)cc1NCC#Cc1cc2c(N[C@@H]3CCN(C)C[C@@H]3F)cccn2c1SC(F)(F)F [Example 410]	< 750 nM	> 90%	≥ 10000 nM	< 750 nM	< 10 nM	< 750 nM

Source: patent US20260374766A1, “METHODS FOR TREATING CANCER” (Antares Therapeutics, Inc., priority 2022, published 2026)
